Experimental data from US20060183797A1, “Fatty alcohols and fatty acid esters useful for treatment of inflammation” (priority 2001, published 2006).
Several values for one entry are separate records, joined by “and”; a condition that tells them apart may be missing. Equal values may be shown once.

Key:
Format in all cases: in vivo
[1] = system: experimental autoimmune encephalomyelitis (EAE); assay: Experimental autoimmune encephalomyelitis (EAE) in Lewis rats; conditions: 0.5 ml/kg SC once, 14 days before EAE induction
adjuvant arthritis (AA) [2] = assay: Adjuvant arthritis (AA) in Lewis rats, inhibition of inflammation; conditions: for suppression of inflammation on day of peak disease: day 26
adjuvant arthritis (AA) [3] = assay: as above; conditions: for % Inhibition (100 μl) of the inflammation of adjuvant arthritis: 100 μl SC once, 14 days before induction of AA or on day 12 after induction, day of maximal inflammation
Experimental: AA was induced by immunizing inbred 8-10-week old Lewis rats (Harlan-Olac Limited, Blackthorn, Oxon, UK), at the base of the tail with 1 mg/0.1 ml of killed Mycobacterium tuberculosis (Sigma) in IFA (Sigma) as described (Pearson, 1956). Arthritis of the limbs was noted to develop 12-14 days later and was scored on a scale of 0-16 summing the severity of the inflammation of each of the 4 limbs on a scale of 0-4, as described (Holoshitz et al., 1983). The peak of the arthritis usually was observed around day 26 after immunization.
Control rats were untreated or treated by injections of saline. A positive control of immunosuppression was obtained by including a group of rats treated with the corticosteroid agent dexamethasone (200 μg) administered intraperitoneally every other day beginning on day 12 after induction.
The immunomodulator of the invention (100 μl oleyl alcohol, glycerol mono-oleate, linolenyl alcohol or cetyl alcohol) was administered subcutaneously (SC) once 14 days before induction of AA or on day 12 after induction of AA. The percent inhibition of inflammation measured on the day of maximal inflammation was computed as follows: [formula] […]

[4] = vs non-treated control, listed as OA

SMILES: CCCCCCCC/C=C\CCCCCCCCO [Oleyl alcohol, cis-9-octadecenol]
- % Incidence of disease [1]: 50.0%
- effect on EAE clinical parameters (in words) [1]: beneficial effect on all the clinical parameters
- Mean Onset of disease (Day No.) ([1]; rats without EAE counted as 25 days): 18.6 Day No.
- Disease duration ([1]; rats without EAE counted as zero): 2.0 days
- GMS (group mean score) ([1]; scale 0-5): 0.22
- MMS (mean maximal score) ([1]; scale 0-5): 0.88
- % Activity GMS ([1]; vs non-treated control): 77.1%
- % Activity Incidence ([1]; vs non-treated control): 33.3%
- % Activity MMS ([1]; vs non-treated control): 63%
- % Activity GMS [1, 4]: 77.1%
- % Activity MMS [1, 4]: 63.0%
- suppression of inflammation on day of peak disease (adjuvant arthritis (AA) [2]; 10 μl SC once 14 days before induction): 14%
- suppression of inflammation on day of peak disease (adjuvant arthritis (AA) [2]; 50 μl SC once 14 days before induction): 61%
- suppression of inflammation on day of peak disease (adjuvant arthritis (AA) [2]; 100 μl SC once 14 days before induction): 78%
- suppression of inflammation on day of peak disease (adjuvant arthritis (AA) [2]; 500 μl SC once 14 days before induction): 90%
- suppression of inflammation (adjuvant arthritis (AA) [2]; 500 μl, two further experiments): 96% and 91%
- % Inhibition (100 μl) of the inflammation of adjuvant arthritis (adjuvant arthritis (AA) [3]): 78%

SMILES: CCC=CCC=CC/C=C\CCCCCCCCO [Linolenyl alcohol, cis-9,12,15-octadecatrienol]
- % Inhibition (100 μl) of the inflammation of adjuvant arthritis (adjuvant arthritis (AA) [3]): 75%

SMILES: CCCCCCCC/C=C\CCCCCCCC(=O)OCC(O)CO (stereo not drawn) [Glycerol mono-oleate, glycerol monooleate]
- % Inhibition (100 μl) of the inflammation of adjuvant arthritis (adjuvant arthritis (AA) [3]): 98%

SMILES: CCCCCCCCCCCCCCCCO [Cetyl alcohol, cetyl alcohol]
- % Inhibition (100 μl) of the inflammation of adjuvant arthritis (adjuvant arthritis (AA) [3]): 66%

SMILES: CCCCCCCC/C=C\CCCCCCCC(=O)O [oleic acid, cis-9-octadecenoic acid, reference compound]
- effect on inflammation of adjuvant arthritis (in words) (adjuvant arthritis (AA) [3]; Lewis rats, Example 1): no effect
